Molecular target: T1, human GR (Homo sapiens, UniProt P04150)
T1 construct: naturally expresses the human GR; endogenous in cells
T1 sequence (P04150 1-777): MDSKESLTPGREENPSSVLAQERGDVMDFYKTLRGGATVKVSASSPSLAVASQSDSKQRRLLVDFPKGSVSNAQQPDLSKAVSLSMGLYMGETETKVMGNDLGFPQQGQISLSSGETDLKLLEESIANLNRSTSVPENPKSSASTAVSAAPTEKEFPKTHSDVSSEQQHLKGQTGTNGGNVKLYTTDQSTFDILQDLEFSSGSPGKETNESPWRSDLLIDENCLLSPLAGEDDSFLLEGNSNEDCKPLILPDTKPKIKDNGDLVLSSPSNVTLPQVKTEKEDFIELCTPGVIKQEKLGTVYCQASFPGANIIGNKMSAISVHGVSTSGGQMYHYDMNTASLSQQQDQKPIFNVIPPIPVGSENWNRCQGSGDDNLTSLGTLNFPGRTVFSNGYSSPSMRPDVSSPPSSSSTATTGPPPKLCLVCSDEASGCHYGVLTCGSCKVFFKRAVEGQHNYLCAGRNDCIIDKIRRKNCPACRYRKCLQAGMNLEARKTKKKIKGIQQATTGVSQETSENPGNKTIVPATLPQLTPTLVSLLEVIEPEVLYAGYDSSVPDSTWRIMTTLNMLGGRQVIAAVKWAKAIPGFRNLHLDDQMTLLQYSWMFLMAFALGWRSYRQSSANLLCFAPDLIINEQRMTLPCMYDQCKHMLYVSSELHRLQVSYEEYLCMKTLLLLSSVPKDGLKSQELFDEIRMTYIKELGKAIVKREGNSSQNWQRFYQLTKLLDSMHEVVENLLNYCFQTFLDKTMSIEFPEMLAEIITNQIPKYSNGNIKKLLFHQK
Test: Transrepression assay (GITAR), TNFα-β-lactamase reporter in U937 cells
Format: cell-based
Conditions: for EC50: U937 cells, IP = inflection point; for Emax: U-937, U937 cells, activity repressed by 100 nM dexamethasone alone set as 100%
Text: Transrepression Assay (GITAR)
This assay assesses the ability of test compounds to control transcription from the TNFα-β-lactamase reporter gene in U937 cells, a human myelomonocytic leukemia cell line that naturally expresses the human GR. The assay measures compound dependent-repression of the TNFa promoter linked to a reporter gene.
The human U937 cells that had been stablely transfected with the TNF-a promoter driving ˜-lactamase are used for this assay. U937 cells contain an endogenous glucocorticoid receptor (GR). Cells are maintained in RPMI 1640 Growth medium (GibcoCat#11875-093) containing 25 mM HEPES, 10% FBS, 2 mM L-Glutamine, 1 mM Sodium pyruvate, 25 μg/ml Gentamicin (Gibed Cat#1571 0-064), 1:1000 2-Mercaptoethanol (Gibco Cat#21985-023) and 0.8 mg/ml G418 (Gibco Cat#10131-027). The density of the cells in the flask needs to be about 1×10^6-3×10^6/ml at the time of harvest. Usually, the cells are split to 1.2˜1.4×10^5/ml (1:10) 3 days prior to the assay. 50,000 cells/well are plated in 96 well black-walled plates the day of assay. Test compounds are added 10 J.lL/well, and cells are incubated at 37° C. for 30˜45 min. For assaying compounds, first dilute 1:10 in DMSO to make 1 mM, then further dilute 1:100 in medium to make 10× stock prior to adding to the cells. Add 50 ng/ml PMA (Sigma, cat#P8139) 10 μL/well to a final concentration 5 ng/ml, and 1 μg/ml LPS (Sigma, cat#L4130) 10 μL/well to a final concentration 100 ng/ml. Incubate cells at 370 C overnight for −18 hr. PMA is stored frozen as […] in DMSO. Dilute 1:10 in DMSO for a working stock of 10 μg/ml and store at −20° C. For assaying, dilute the 10 μg/ml working stock 1:200 in medium to make a 10× solution (50 ng/ml). Store frozen LPS at 1 mg/ml in PBS, dilute 1:1000 in medium to make 10×μg/ml) for the assay. Add 6× loading buffer (CCF2-AM) 20 μL/well, and incubate at room temperature for 70-90 min. […] The activity repressed by 100 nM dexamethasone alone is set as 100% activity.

| Compound | EC50 | Emax |
| --- | --- | --- |
| CC[C@]12Cc3cnn(-c4ccc(F)cc4)c3C=C1CC[C@@]2(O)CCc1nccc(OC)c1C(F)C(N)=O (stereo partly drawn) [Example 65, 2-(2-{2-[(4aS,5R)-4a-Ethyl-1-(4-fluorophenyl)-5-hydroxy-1,4,4a,5,6,7-hexahydrocyclopenta[f]indazol-5-yl]ethyl}-4-methoxypyridin-3-yl)-2-fluoroacetamide] | 195 nM | 63% |
| NC(=O)[C@H](F)c1c(F)cccc1CC[C@]1(O)CCC2=Cc3c(cnn3-c3ccc(F)cc3)C[C@@]21C1CC1 [Example 57, (2R)-2-(2-{2-[(4aR,5R)-4a-Cyclopropyl-1-(4-fluorophenyl)-5-hydroxy-1,4,4a,5,6,7-hexahydrocyclopenta[f]indazol-5-yl]ethyl}-6-fluorophenyl)-2-fluoroethanamide] | 106 nM | 86% |
| NC(=O)c1c(C2CC2)ccnc1CC[C@]1(O)CCC2=Cc3c(cnn3-c3ccc(F)cc3)C[C@@]21C1CC1 [Example 49, 4-Cyclopropyl-2-{2-[(4aR,5R)-4a-cyclopropyl-1-(4-fluorophenyl)-5-hydroxy-1,4,4a,5,6,7-hexahydrocyclopenta[f]indazol-5-yl]ethyl}pyridine-3-carboxamide] | 12 nM | 78% |
| NC(=O)c1cc(F)cnc1CC[C@]1(O)CCC2=Cc3c(cnn3-c3ccc(F)cc3)C[C@@]21C1CC1 [Example 4, 2-{2-[(4aR,5R)-4a-Cyclopropyl-1-(4-fluorophenyl)-5-hydroxy-1,4,4a,5,6,7-hexahydrocyclopenta[f]indazol-5-yl]ethyl}-5-fluoropyridine-3-carboxamide] | 83 nM | 71% |
| N#Cc1cccnc1CC[C@]1(O)CCC2=Cc3c(cnn3-c3ccc(F)cc3)C[C@@]21C1CC1 [Example 31, 2-{2-[(4aR,5R)-4a-Cyclopropyl-1-(4-fluorophenyl)-5-hydroxy-1,4,4a,5,6,7-hexahydrocyclopenta[f]indazol-5-yl]ethyl}pyridine-3-carbonitrile] | 13 nM | 89% |
| NC(=O)c1ccccc1CC[C@]1(O)CCC2=Cc3c(cnn3-c3cccc(F)c3)C[C@@]21C1CC1 [Example 7, 2-{2-[(4aR,5R)-4a-Cyclopropyl-1-(3-fluorophenyl)-5-hydroxy-1,4,4a,5,6,7-hexahydrocyclopenta[f]indazol-5-yl]ethyl}benzamide] | 143 nM | 67% |
| NC(=O)CNC(=O)c1cc(F)cnc1CC[C@]1(O)CCC2=Cc3c(cnn3-c3ccc(F)cc3)C[C@@]21C1CC1 [Example 44, N-(2-Amino-2-oxoethyl)-2-{2-[(4aR,5R)-4a-cyclopropyl-1-(4-fluorophenyl)-5-hydroxy-1,4,4a,5,6,7-hexahydrocyclopenta[f]indazol-5-yl]ethyl}-5-fluoropyridine-3-carboxamide] | 38 nM | 86% |
| CC[C@]12Cc3cnn(-c4ccc(F)cc4)c3C=C1CC[C@@]2(O)CC(O)c1c(F)ccnc1Cl (stereo partly drawn) [Example 74, (4aS,5R)-5-[2-(2-Chloro-4-fluoropyridin-3-yl)-2-hydroxyethyl]-4a-ethyl-1-(4-fluorophenyl)-1,4,4a,5,6,7-hexahydrocyclopenta[f]indazol-5-ol] | 103 nM | 72% |
| NC(=O)c1ccccc1CC[C@]1(O)CCC2=Cc3c(cnn3-c3ccccc3)C[C@@]21C1CC1 [Example 29, 2-{2-[(4aR,5R)-4a-Cyclopropyl-5-hydroxy-1-phenyl-1,4,4a,5,6,7-hexahydrocyclopenta[f]indazol-5-yl]ethyl}benzamide] | 47 nM | 69% |

Second part, the compound after the results:

| EC50 | Emax | Compound |
| --- | --- | --- |
| 65 nM | 74% | CC[C@]12Cc3cnn(-c4ccc(F)cc4)c3C=C1CC[C@@]2(O)CC1OC(=O)c2ccccc21 (stereo partly drawn) [Example 71, 3-{[(4aS,5R)-4a-Ethyl-1-(4-fluorophenyl)-5-hydroxy-1,4,4a,5,6,7-hexahydrocyclopenta[f]indazol-5-yl]methyl}-2-benzofuran-1(3H)-one] |
| 163 nM | 76% | CC[C@]12Cc3cnn(-c4cccnc4)c3C=C1CC[C@@]2(O)CCc1ccccc1C(N)=O [Example 13, 2-{2-[(4aS,5R)-4a-Ethyl-5-hydroxy-1-(pyridin-3-yl)-1,4,4a,5,6,7-hexahydrocyclopenta[f]indazol-5-yl]ethyl}benzamide] |
| 90 nM | 88% | CC[C@]12Cc3cnn(-c4ccc(F)cc4)c3C=C1CC[C@@]2(O)CCc1ccc(F)cc1C(N)=O [Example 8, 2-{2-[(4aS,5R)-4a-Ethyl-1-(4-fluorophenyl)-5-hydroxy-1,4,4a,5,6,7-hexahydrocyclopenta[f]indazol-5-yl]ethyl}-5-fluorobenzamide] |
| 148 nM | 89% | CC[C@]12Cc3cnn(-c4ccc(F)cc4)c3C=C1CC[C@@]2(O)CCc1ccccc1CCC(N)=O [Example 22, 3-(2-{2-[(4aS,5R)-4a-Ethyl-1-(4-fluorophenyl)-5-hydroxy-1,4,4a,5,6,7-hexahydrocyclopenta[f]indazol-5-yl]ethyl}phenyl)propanamide] |
| 11 nM | 89% | CC[C@]12Cc3cnn(-c4ccc(F)cc4)c3C=C1CC[C@@]2(O)CCc1ccccc1S(C)(=O)=O [Example 42, (4aS,5R)-4a-Ethyl-1-(4-fluorophenyl)-5-{2-[2-(methylsulfonyl)phenyl]ethyl}-1,4,4a,5,6,7-hexahydrocyclopenta[f]indazol-5-ol] |
| 65 nM | 83% | CC[C@]12Cc3cnn(-c4ccc(F)cc4)c3C=C1CC[C@@]2(O)CCc1ccccc1S(=O)(=O)CC [Example 51, (4aS,5R)-4a-Ethyl-5-{2-[2-(ethylsulfonyl)phenyl]ethyl}-1-(4-fluorophenyl)-1,4,4a,5,6,7-hexahydrocyclopenta[f]indazol-5-ol] |
| 113 nM | 64% | CC[C@]12Cc3cnn(-c4cccnc4)c3C=C1CC[C@@]2(O)CCc1cccc(F)c1C#N [Example 10, 2-{2-[(4aS,5R)-4a-Ethyl-5-hydroxy-1-(pyridin-3-yl)-1,4,4a,5,6,7-hexahydrocyclopenta[f]indazol-5-yl]ethyl}-6-fluorobenzonitrile] |
| 9 nM | 88% | O=C(NCCO)c1ccccc1CC[C@]1(O)CCC2=Cc3c(cnn3-c3ccc(F)cc3)C[C@@]21C1CC1 [Example 50, 2-{2-[(4aR,5R)-4a-Cyclopropyl-1-(4-fluorophenyl)-5-hydroxy-1,4,4a,5,6,7-hexahydrocyclopenta[f]indazol-5-yl]ethyl}-N-(2-hydroxyethyl)benzamide] |
| 142 nM | 79% | CC[C@]12Cc3cnn(-c4ccc(F)cc4)c3C=C1CC[C@@]2(O)CC(O)c1ncccc1Cl (stereo partly drawn) [Example 70, (4aS,5R)-5-[2-(3-Chloropyridin-2-yl)-2-hydroxyethyl]-4a-ethyl-1-(4-fluorophenyl)-1,4,4a,5,6,7-hexahydrocyclopenta[f]indazol-5-ol] |
| 5 nM | 88% | CS(=O)(=O)c1ccccc1CC[C@]1(O)CCC2=Cc3c(cnn3-c3ccc(F)cc3)C[C@@]21C1CC1 [Example 58, (4aR,5R)-4a-Cyclopropyl-1-(4-fluorophenyl)-5-{2-[2-(methylsulfonyl)phenyl]ethyl}-1,4,4a,5,6,7-hexahydrocyclopenta[f]indazol-5-ol] |
| 8 nM | 90% | CC[C@]12Cc3cnn(-c4ccc(F)cc4)c3C=C1CC[C@@]2(O)CCc1cccc(OC)c1C(N)=O [Example 37, 2-{2-[(4aS,5R)-4a-Ethyl-1-(4-fluorophenyl)-5-hydroxy-1,4,4a,5,6,7-hexahydrocyclopenta[f]indazol-5-yl]ethyl}-6-methoxybenzamide] |

— patent US20120214847A1, “2-[1-PHENYL-5-HYDROXY-4a-SUBSTITUTED-HEXAHYDROCYCLOPENTA[F]INDAZOL-5-YL]ETHYL PHENYL DERIVATIVES AS GLUCOCORTICOID RECEPTOR LIGANDS” (Merck Sharp & Dohme Corp., priority 2009, published 2012)
